Measured values published in patent US6455528B1, “Piperazine compounds and medicinal use thereof” (Mitsubishi Pharma Corporation, priority 1997, dated 2002).

Legend:
IL-10 production = test: Effect on IL-10 production in mice (in vivo), LPS-induced; conditions: serum IL-10 90 min after LPS 500 μg/kg i.p.; test compound orally 30 min before LPS; ratio relative to test compound non-administration group
Experimental: (§1) Since the TNF-α concentration in serum reaches a peak at 90 min after LPS administration, the TNF-α concentration in the serum at this point was measured using FACTOR TEST mTNF-α (manufactured by Genzyme) and the IL-10 concentration at the same point of time was also measured using Murine IL-10 ELISA Kit (manufactured by Endogen). […] The effect of the test compound on the TNF-α production and IL-10 production was calculated by the following formula as the ratio relative to the test compound non-administration group.

TNF-α production = test: Effect on TNF-α production in mice (in vivo), LPS-induced; conditions: serum TNF-α 90 min after LPS 500 μg/kg i.p.; test compound orally 30 min before LPS; ratio relative to test compound non-administration group
Experimental: as §1

Row | melting point | Compound | IL-10 production (%) (IL-10 production) | TNF-α production (%) (TNF-α production)
1 | 101 to 103 °C | CC(=O)NC(C)c1ccc(CN2CCN(c3ccc(F)cc3)CC2)cc1 (stereo not drawn) [Example 48, N-(1-(4-((4-(4-Fluorophenyl)piperazin-1-yl)methyl)phenyl)ethyl)acetamide] | 888% | 12%
2 | 104.5 to 106 °C | CC(=O)NC(C)(C)c1ccc(CN2CCN(c3ccc(F)cc3)CC2)cc1 [Example 51, N-(1-Methyl-1-(4-((4-(4-fluorophenyl)-piperazin-1-yl)methyl)phenyl)ethyl)acetamide] | 533% | 16%
3 | 120 to 121 °C | CC(=O)NCc1ccc(CN2CCN(c3ncccn3)CC2)cc1 [Example 72, N-(4-((4-(Pyrimidin-2-yl)piperazin-1-yl)methyl)phenylmethyl)acetamide] | 510% | 20%
4 | 100 to 101 °C | CC(=O)NCc1ccc(CN2CCN(c3ccccn3)CC2)cc1 [Example 82, N-(4-((4-(Pyridin-2-yl)piperazin-1-yl)methyl)phenylmethyl)acetamide] | 742% | 11%
